Measurements: patent US10336701B2, “Pyridin-2-one derivatives of formula (II) useful as EP3 receptor antagonists” (Janssen Pharmaceutica NV, priority 2017, dated 2019)

What was measured:
EP3 receptor [1] = molecular target: T1, EP3 receptor (Homo sapiens, UniProt P43115); assay: [3H]-PGE2 binding assay (EP3 competition binding); conditions: read-out: [3H]-PGE2 Binding Ki
T1 construct: purchased Millipore HTS092M
T1 sequence (P43115 1-390): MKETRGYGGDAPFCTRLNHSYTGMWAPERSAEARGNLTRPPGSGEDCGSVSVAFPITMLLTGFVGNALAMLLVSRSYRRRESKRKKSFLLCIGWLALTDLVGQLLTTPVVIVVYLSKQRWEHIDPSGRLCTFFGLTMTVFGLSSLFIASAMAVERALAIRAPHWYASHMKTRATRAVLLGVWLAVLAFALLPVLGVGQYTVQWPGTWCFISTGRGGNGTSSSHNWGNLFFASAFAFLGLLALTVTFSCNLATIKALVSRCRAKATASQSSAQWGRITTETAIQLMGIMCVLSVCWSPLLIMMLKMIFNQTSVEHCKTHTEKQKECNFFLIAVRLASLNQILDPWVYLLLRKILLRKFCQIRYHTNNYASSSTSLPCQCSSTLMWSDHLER
How it was run: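 Scintillation-bead competition binding with EP3 membranes (2 μg/well), 2 nM [3H]-PGE2, 0.1% DMSO, in 50 mM Tris, 10 mM MgCl2, 1 mM EDTA, pH 7.4.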

EP3 receptor [2] = molecular target: T1, EP3 receptor; assay: CHO cell cAMP assay (forskolin and sulprostone stimulated, HTRF); type: cell-based; conditions: CHO cells; sulprostone 700 nM (EC80) and FSK 2 μM (EC70), 37° C. for 30 minutes; read-out: CHO_cAMP IC50
Method: For detection, a homogeneous competitive immunoassay (Time Resolved Fluorescence Energy Transfer (hTR-FRET)) was used.
Cells (6K cells per well) were plated in Poly-D-Lysine coated plates the day before the assay was to be run and were incubated at 37° C. […] At the start of the assay the buffer was removed from the cells and replaced with buffer containing test compound(s). Sulprostone at an EC80 dose (700 nM) and FSK at an EC70 dose (2 μM) were added to initiate the reaction (37° C. for 30 minutes).
FSK increases cAMP production and sulprostone decreases cAMP production produced by FSK. In this assay, EP3 antagonists will increase the cAMP to the level of cAMP generated by FSK alone.
Approximately one hour later the plates were read on an Envision (Perkin Elmer) in HTRF mode.
NSP, NSN, NSsample were converted to nM cAMP using the following equation: […]
IC50 values were determined from a […] (Hill equation) of a single 11-point compound dosing.

Row | Compound | Ki (EP3 receptor [1]) | IC50 (EP3 receptor [2])
1 | CCn1ncc2c(F)cc(-c3ccc(C4CCN(S(=O)(=O)C(C)C)C4)c(=O)[nH]3)cc21 (centres unmarked) [compound 213, 6-(1-ethyl-4-fluoro-1H-indazol-6-yl)-3-(1-(isopropylsulfonyl)pyrrolidin-3-yl)pyridin-2(1H)-one] | 0.007 µM | 0.281 µM
2 | CCn1ncc2c(F)cc(-c3[nH]c(=O)c(C(/C=C4\OC(=O)NC4=O)C(C)C)cc3C)cc21 (centres unmarked) [compound 111, (Z)-5-(2-(6-(1-ethyl-4-fluoro-1H-indazol-6-yl)-5-methyl-2-oxo-1,2-dihydropyridin-3-yl)-3-methylbutylidene)oxazolidine-2,4-dione] | 0.162 µM | 0.585 µM
3 | CO/N=C1\NCC(c2cc(C)c(-c3ccc4cccc(F)c4c3)[nH]c2=O)(C(C)C)N1 (centres unmarked) [compound 293, (E)-6-(8-fluoronaphthalen-2-yl)-3-(4-isopropyl-2-(methoxyimino)imidazolidin-4-yl)-5-methylpyridin-2(1H)-one] | 0.014 µM | 0.207 µM
4 | CCn1ncc2c(F)cc(-c3ccc(C(CN4CCS(=O)(=O)CC4)C(C)C)c(=O)[nH]3)cc21 (centres unmarked) [Compound #133, 4-{2-[6-(1-ethyl-4-fluoroindazol-6-yl)-2-oxo-1H-pyridin-3-yl]-3-methylbutyl},4-thiomorpholine-1,1-dione] | 0.012 µM | 0.235 µM
5 | CC1=NC(C)(c2ccc(-c3ccc4ccccc4c3)[nH]c2=O)C(=O)N1 (centres unmarked) [compound 223, 3-(2,4-dimethyl-5-oxo-4,5-dihydro-1H-imidazol-4-yl)-6-(naphthalen-2-yl)-1,2-dihydropyridin-2-one] | 0.496 µM | 3.58 µM
6 | CC1(c2ccc(-c3ccc4ccccc4c3)[nH]c2=O)CNS(=O)(=O)N1 (centres unmarked) [compound 282, 3-(3-methyl-1,1-dioxido-1,2,5-thiadiazolidin-3-yl)-6-(naphthalen-2-yl)pyridin-2(1H)-one] | 0.74 µM | 0.9 µM
7 | CC(C)C(O)(CC(N)=O)c1ccc(-c2ccc3cccc(F)c3c2)[nH]c1=O (centres unmarked) [compound 255, 3-(6-(8-fluoronaphthalen-2-yl)-2-oxo-1,2-dihydropyridin-3-yl)-3-hydroxy-4-methylpentanamide] | 0.009 µM | 0.115 µM
8 | CCN1CCOc2ccc(-c3ccc(C(CC)(CC)CC4OC(=O)NC4=O)c(=O)[nH]3)cc21 (centres unmarked) [compound 44, 5-(2-ethyl-2-(6-(4-ethyl-3,4-dihydro-2H-benzo[b][1,4]oxazin-6-yl)-2-oxo-1,2-dihydropyridin-3-yl)butyl)oxazolidine-2,4-dione] | 0.093 µM | 0.505 µM
9 | CC(C)C(/C=C1\OC(=O)NC1=O)c1ccc(-c2cc(Cl)c3c(c2)ncn3C)[nH]c1=O (centres unmarked) [compound 97, (Z)-5-(2-(6-(7-chloro-1-methyl-1H-benzo[d]imidazol-5-yl)-2-oxo-1,2-dihydropyridin-3-yl)-3-methylbutylidene)oxazolidine-2,4-dione] | 0.179 µM | 0.666 µM
10 | O=C1NC(=O)[C@]2(CCC[C@H](c3ccc(-c4ccc5ccccc5c4)[nH]c3=O)C2)N1 (racemic) [compound 191, 7-(6-(naphthalen-2-yl)-2-oxo-1,2-dihydropyridin-3-yl)-1,3-diazaspiro[4.5]decane-2,4-dione] | 0.005 µM | 0.02 µM
11 | CC(C)C(C(=O)NC1CCNC1)c1ccc(-c2ccc3cccc(F)c3c2)[nH]c1=O (centres unmarked) [compound 178, 2-(6-(8-fluoronaphthalen-2-yl)-2-oxo-1,2-dihydropyridin-3-yl)-3-methyl-N-(pyrrolidin-3-yl)butanamide] | 0.02 µM | 0.22 µM
12 | CC(C)C(/C=C1/C(=O)NC(=O)N1C)c1ccc(-c2ccc3cccc(F)c3c2)[nH]c1=O (centres unmarked) [Compound #80, 5-(2-(6-(8-fluoronaphthalen-2-yl)-2-oxo-1,2-dihydropyridin-3-yl)-3-methylbutylidene)-1-methylimidazolidine-2,4-dione] | 0.006 µM | 0.011 µM
13 | CCN1CCOc2ccc(-c3ccc(C(CN4CCS(=O)(=O)CC4)C(C)C)c(=O)[nH]3)cc21 (centres unmarked) [Compound #104, 3-(1-(1,1-dioxidothiomorpholino)-3-methylbutan-2-yl)-6-(4-ethyl-3,4-dihydro-2H-benzo[b][1,4]oxazin-6-yl)pyridin-2(1H)-one] | 0.053 µM | 0.375 µM
14 | CC(C)C(c1ccc(-c2ccc3cccc(F)c3c2)[nH]c1=O)n1cnnc1N (centres unmarked) [compound 160, 3-(1-(3-amino-4H-1,2,4-triazol-4-yl)-2-methylpropyl)-6-(8-fluoronaphthalen-2-yl)pyridin-2(1H)-one] | 0.013 µM | 0.044 µM
15 | CCn1ncc2c(F)cc(-c3ccc(C(/C=C4\CCNC4=O)(CC)CC)c(=O)[nH]3)cc21 [compound 13, (E)-6-(1-ethyl-4-fluoro-1H-indazol-6-yl)-3-(3-((2-oxopyrrolidin-3-ylidene)methyl)pentan-3-yl)pyridin-2(1H)-one] | 0.003 µM | 0.022 µM
16 | CCOC(=O)C(=C1CCCCC1)c1ccc(-c2ccc3ccccc3c2)[nH]c1=O [compound 281, ethyl 2-cyclohexylidene-2-(6-(naphthalen-2-yl)-2-oxo-1,2-dihydropyridin-3-yl)acetate] | 0.037 µM | 0.527 µM
17 | CC(C)C(c1ccc(-c2ccc3cccc(F)c3c2)[nH]c1=O)n1cnc(N)n1 (centres unmarked) [compound 161, 3-(1-(3-amino-1H-1,2,4-triazol-1-yl)-2-methylpropyl)-6-(8-fluoronaphthalen-2-yl)pyridin-2(1H)-one] | 0.027 µM | 0.095 µM
18 | CC(C)C1(c2ccc(-c3ccc4cccc(F)c4c3)[nH]c2=O)CNC(NC#N)=N1 (centres unmarked) [compound 291, N-(4-(6-(8-fluoronaphthalen-2-yl)-2-oxo-1,2-dihydropyridin-3-yl)-4-isopropyl-4,5-dihydro-1H-imidazol-2-yl)cyanamide] | 0.003 µM | 0.019 µM
19 | CCC(/C=C1/OC(=O)NC1=O)(CC)c1ccc(-c2ccc3c(c2)OC(C)(C)C=C3)[nH]c1=O [compound 28, 5-(2-(6-(2,2-dimethyl-2H-chromen-7-yl)-2-oxo-1,2-dihydropyridin-3-yl)-2-ethylbutylidene)oxazolidine-2,4-dione] | 5.62 µM | > 20 µM
20 | CS(=O)(=O)N1CCC(c2ccc(-c3ccc4ccccc4c3)[nH]c2=O)CC1 [compound 186, 3-(1-(methylsulfonyl)piperidin-4-yl)-6-(naphthalen-2-yl)pyridin-2(1H)-one] | 0.04 µM | 2.83 µM
21 | CC(C)C(c1ccc(-c2ccc3cccc(F)c3c2)[nH]c1=O)N(C)C(N)=O (centres unmarked) [compound 265, 1-(1-(6-(8-fluoronaphthalen-2-yl)-2-oxo-1,2-dihydropyridin-3-yl)-2-methylpropyl)-1-methylurea] | 0.034 µM | 0.249 µM
22 | CC1(c2ccc(-c3ccc4ccccc4c3)[nH]c2=O)CNC(NS(C)(=O)=O)=N1 (centres unmarked) [compound 290, N-[4-methyl-4-[6-(naphthalen-2-yl)-2-oxo-1,2-dihydropyridin-3-yl]-4,5-dihydro-1H-imidazol-2-yl]methanesulfonamide] | 0.116 µM | 1.91 µM
23 | CC(C)C(F)(C(=O)NS(C)(=O)=O)c1ccc(-c2ccc3ccccc3c2)[nH]c1=O (centres unmarked) [compound 224, 2-fluoro-3-methyl-N-(methylsulfonyl)-2-(6-(naphthalen-2-yl)-2-oxo-1,2-dihydropyridin-3-yl)butanamide] | 1.29 µM | 10.8 µM
24 | CCn1ncc2c(F)cc(-c3ccc(C(CC)(CC)c4noc(=O)[nH]4)c(=O)[nH]3)cc21 [Compound #4] | 0.088 µM | 1.8 µM
25 | CC1(c2ccc(-c3ccc4ccccc4c3)[nH]c2=O)C(=O)Nc2nccn21 (centres unmarked) [compound 153, 3-methyl-3-(6-(naphthalen-2-yl)-2-oxo-1,2-dihydropyridin-3-yl)-1H-imidazo[1,2-a]imidazol-2(3H)-one] | 0.043 µM | 0.4 µM
26 | CONC(=O)CC(c1ccc(-c2ccc3cccc(F)c3c2)[nH]c1=O)C(C)C (centres unmarked) [compound 257, 3-(6-(8-fluoronaphthalen-2-yl)-2-oxo-1,2-dihydropyridin-3-yl)-N-methoxy-4-methylpentanamide] | 0.002 µM | 0.023 µM
27 | CCn1ncc2c(F)cc(-c3ccc(C4(O)CN(S(=O)(=O)C(C)C)C4)c(=O)[nH]3)cc21 [compound 298, 6-(1-ethyl-4-fluoro-1H-indazol-6-yl)-3-(3-hydroxy-1-(isopropylsulfonyl)azetidin-3-yl)pyridin-2(1H)-one] | 0.979 µM | 8.3 µM
28 | Cc1cc(C(c2ncc[nH]2)C(C)C)c(=O)[nH]c1-c1ccc2cccc(F)c2c1 (centres unmarked) [compound 82, 3-(1-(1H-imidazol-2-yl)-2-methylpropyl)-6-(8-fluoronaphthalen-2-yl)-5-methylpyridin-2(1H)-one] | 0.023 µM | 0.137 µM
